# Measured values reported in patent publication US10471057B2, “Toxic RNA inhibitors self-assembled in situ” (THE SCRIPPS RESEARCH INSTITUTE, priority 2014, dated 2019).
# Entries after “also recorded” stand apart in the source; their conditions may differ.
# Columns and labels:
# r(CUG)exp [1] = assay: DM1 pre-mRNA splicing defects in patient derived fibroblasts; type: cell-based, human
# Description: Bioactivity of small molecule dimers was assessed by using DM1 patient derived fibroblasts containing 500 CTG repeats (GM03987) and healthy fibroblasts (GM07492). Cells were grown as monolayers in 12 well plates in growth medium (1×EMEM (Lonza), 10% FBS, 1× glutagro (Corning), 1×MEM non-essential amino acids (Corning) and 1× antibiotic/antimycotic (Corning)). Once cells were ˜80% confluent, they were treated with growth medium containing the compound of interest (10, 1, 0.1 and 0.01 μM 2H-K4NMeS; 100, 10 and 1 nM 2H-K4NMeS-CA-Biotin; 1 μM N3-2H-K4NMeS; 500 nM N3-2H-K4NMeS+500 nM 2H-K4NMeS-Aminohexanoate; 1000, 10 and 0.1 nM N3-2H-K4NMeS-Aak; 250, 100, and 50 nM 2H-K4NMeS-Bleomycin A5). After 48 h the cells were lysed and the total RNA was harvested using a Zymo Quick RNA miniprep kit. An on-column DNA digestion was completed per the manufacturer's recommended protocol. Approximately 150 ng of total RNA was reverse transcribed at 50° C. using 100 units of SuperScript III reverse transcriptase (Life Technologies). Then 20% of the RT reaction was subjected to PCR using GoTaq DNA polymerase (Promega). RT-PCR products were observed after 25 cycles of 95° C. for 30 s, 58° C. for 30 s, 72° C. for 1 min and a final extension at 72° C. for 1 min. The products were separated on an 2% agarose gel ran at 100 V for 1 h in 1×TAE buffer. The products were visualized by staining with ethidium bromide and scanned using a Bio-Rad Gel Doc XR+ imaging system. The RT-PCR primers for the MBNL1 were […]
# DMPK mRNA = details: 100 nM, 48 h, qRT-PCR of r(CUG)-containing mRNAs
# Description: Target identification of small molecule dimers was assessed using DM1 patient derived fibroblasts containing 500 CTG repeats (GM03987) and healthy fibroblasts (GM07492). Cells were grown as monolayers in 100 mm^2 in growth medium (1×EMEM (Lonza), 10% FBS, 1× glutagro (Corning), 1×MEM non-essential amino acids (Corning) and 1× antibiotic/antimycotic (Corning)). Once cells were 80% confluent, they were treated with growth medium containing the compound of interest (100 nM 2H-K4NMeS-CA-Biotin). After 48 h the cells were lysed and the total RNA was harvested using Trizol reagent (Life Technologies). Approximately 10 of total RNA was incubated with streptavidin-agarose beads (100 Sigma) for 1 h at room temperature. Then the beads were washed with 1×PBS and the bound RNA was eluted by adding 100 μL of 95% formamide, 10 mM EDTA pH 8.2 for 10 min at 60° C. The bound RNA was cleaned up using a Zymo Quick RNA miniprep kit. Approximately 100 ng of RNA was used for RT qScript cDNA synthesis kit (Quanta BioSciences). 10% of the RT reaction was used for real time PCR (qPCR) with SYBR green master mix (Life Technologies) performed on a 7900HT Fast Real-Time PCR System (Applied Biosystems). Monitored rCUG-containing mRNAs DMPK (500 repeats), SUPT20HL1 (17 repeats), CASK (16 repeats), LRP8 (11 repeats), MAP3K4 (11 repeats), SCUBE (7 repeats) and SORCS2 (7 repeats). Quantified by ΔΔCt relative to GAPDH
# r(CUG)109 = assay: In vitro reaction and pull down of small molecule dimers with RNA; type: biochemical; details: rCUG109, GC-based paired RNA and tRNA
# Description: Then 30 μL of this slurry were added to each sample and incubated at room temperature for 1 h. Then the samples were centrifuged and the supernatant was transferred to a separate tube. The beads were then washed with 1×PBST and centrifuged. The supernatant was transferred to the tube containing the unbound RNA. The total radioactive counts of bound and unbound RNA were measured by scintillation counting.
# [2] = Metabolic stability in rat microsomes; type: in vitro ADME
# r(CUG)exp [3] = assay: Splicing defects in HSA LR DM1 mouse model; type: in vivo; details: intraperitoneal once per day for 7 days, vastus muscle
# Description: All experimental procedures, mouse handling, and husbandry were completed in accordance with the Association for Assessment and Accreditation of Laboratory Animal Care. A mouse model for DM1^[8], HSA^LR in line 20b, was used. HSA^LR mice express human skeletal actin RNA with 250 CUG repeats in the 3′ UTR. Age- and gender-matched HSA^LR mice were injected intraperitoneally with either 100 mg/kg 2H-K4NMe in water or 13.3 mg/kg 2H-K4NMeS for treatment and 0.9% NaCl for control once per day for 7 days. Mice were sacrificed one day after the last injection, and the vastus muscle was obtained. RNA was extracted from the vastus tissue, and cDNA was synthesized as previously described.
# [4] = tested on: luciferase reporter without CTG repeats; assay: Translational defect luciferase reporter assay, 0 CTG repeats; type: cell-based
# Description: (§1) C2C12 cell lines expressing 800 or 0 CTG repeats in the 3′ UTR of luciferase were grown as monolayers in 96-well plates in growth medium (1×DMEM, 10% FBS, 1× glutagro, (Corning) andlX antibiotic/antimycotic (Corning))^[10]. Once the cells were 70% confluent, the click functionalized dimers were added in 100 μL of growth medium (1000 nM N3-2H-K4NMeS and 1000, 10 and 0.1 nM N3-2H-K4NMeS-Aak). Cells were treated with compound for 48 h and then the cell count was normalized using WST-1 reagent (Roche). Then cells were washed with 1×DPBS and lysed by treating with 50 μL of PPBT lysis buffer at room temperature for 10 minutes. Then 50 μL of luciferase substrate was added and luminescence was measured.
# [5] = tested on: r(CUG) repeats in 3' UTR of luciferase; assay: Translational defect luciferase reporter assay, 800 CTG repeats; type: cell-based; details: cells with long, toxic r(CUG) repeats
# Description: as §1
# r(CUG)exp [6] = assay: Nuclear foci by FISH in DM1 patient derived fibroblasts; type: cell-based, human; details: 48 h
# Description: FISH was utilized to determine the effects of small molecule dimers on the formation and disruption of nuclear foci. DM1 patient derived fibroblasts containing 500 CTG repeats (GM03987) were grown to ˜80% confluence in a Mat-Tek 96-well glass bottom plate in growth medium. Cells were treated with the compound of interest for 48 h in growth medium followed by FISH as previously described^6 using 1 ng/μL DY547-2′OMe-(CAG)6. Immunostaining of MBNL1 was completed as previously described^7 using the MB1a antibody (diluted 1:4), which was generously supplied by Prof. Glenn E. Morris (Wolfson Centre for Inherited Neuromuscular Disease^[9]. This was fluorescently labeled using a 1:200 dilution of goat anti-mouse IgG DyLight 488 conjugate. Untreated controls were stained using a 1 μg/μL solution of DAPI in 1×DPBS. Cells were imaged in 1×DPBS using an Olympus FluoView 1000 confocal microscope at 100× magnification.
# r(CCUG)300 = assay: Disruption of nuclear foci by FISH in DM2 cell culture model; type: cell-based; details: C2C12 cells expressing r(CCUG)300, 72 h treatment; untreated 9±2
# Description: FISH was utilized to determine the effects of clickable compounds on the formation of nuclear foci. C2C12 were sub-cultured into Mat-Tek 96-well glass bottom plates in growth medium. After the cells reached 60-70% confluency, each well was transfected with 200 ng of total plasmid using 1 μL of Lipofectamine 2000 according to the manufacturer's standard protocol. Equal amounts of plasmids expressing the DM2 mini-gene^[1] and EGFP, used as a positive marker of transfection, were used. After 5 h, the transfection cocktail was removed and replaced with differentiation medium containing the compound of interest. The cells were treated with compound for 72 h followed by FISH as previously described using 1 ng/μL DY547-2′OMe-(CAGG)5^[6]. Cells were imaged in 1×DPBS using an Olympus FluoView 1000 confocal microscope at 100× magnification.
smiles,measurement,setting,value
C[C@H](NC(=O)[C@H](C)N(C)C(=O)CN(CCN(C)C(=O)CCCOc1cccc(-c2nc3ccc(-c4nc5cc(N6CCN(C)CC6)ccc5[nH]4)cc3[nH]2)c1)C(=O)CN(CCNC(=O)CCCC[C@@H]1SC[C@@H]2NC(=O)N[C@@H]21)C(=O)CCNC(=O)CCCc1ccc(N(CCCl)CCCl)cc1)C(=O)N(C)[C@@H](C)C(=O)N(CCCCN(C)C(=O)CCCOc1cccc(-c2nc3ccc(-c4nc5cc(N6CCN(C)CC6)ccc5[nH]4)cc3[nH]2)c1)CC(N)=O [2H-K4NMeS-CA-Biotin],improvement of DM1-associated pre-mRNA splicing defects (in words),r(CUG)exp [1]; cells,improves DM1-associated pre-mRNA splicing defects in cells
same,RNA targets pulled down (Chem-CLIP),DMPK mRNA,binds to disease-causing expanded transcripts and not other RNAs with shorter (non-pathogenic length) r(CUG) repeats
same,in vitro reaction with RNA targets,r(CUG)109,most effectively reacted with r(CUG)109
C[C@@H](C(=O)N(C)[C@@H](C)C(=O)N(C)[C@@H](C)C(=O)N(C)[C@@H](C)C(=O)N(CCCCN(C)C(=O)CCCOc1cccc(-c2nc3ccc(-c4nc5cc(N6CCN(C)CC6)ccc5[nH]4)cc3[nH]2)c1)CC(N)=O)N(C)C(=O)CCCOc1cccc(-c2nc3ccc(-c4nc5cc(N6CCN(C)CC6)ccc5[nH]4)cc3[nH]2)c1 [2H-K4NMeS],rescue of pre-mRNA splicing defect,"r(CUG)exp [1]; DM1 patient-derived fibroblasts, concentrations greater than 100 nM",> 50%
same,stability in microsomes (in words),[2],stable in microsomes; also recorded: stable to rat microsomes
same,potency at improving Clen1 pre-mRNA splicing defect compared to 2H-K4NMe,r(CUG)exp [3],> 7 fold
C#CC(=O)NCCCCCC(=O)N(CCN(C)C(=O)CCCOc1cccc(-c2nc3ccc(-c4nc5cc(N6CCN(C)CC6)ccc5[nH]4)cc3[nH]2)c1)CC(=O)N(C)[C@@H](C)C(=O)N(C)[C@@H](C)C(=O)N(C)[C@@H](C)C(=O)N(CCCCN(C)C(=O)CCCOc1cccc(-c2nc3ccc(-c4nc5cc(N6CCN(C)CC6)ccc5[nH]4)cc3[nH]2)c1)CC(=O)N(CCCN=[N+]=[N-])CC(N)=O [N3-2H-K4NMeS-Aak],improvement of DM1-associated pre-mRNA splicing defects,"r(CUG)exp [1]; DM1 patient-derived fibroblasts, 10 nM dosage",> 50%
same,effect on translation in cells without pathogenic repeats,[4],has no effect on cells that did not have pathogenic repeats
same,DMPK translational defect,[5],improved the DMPK translational defect at nanomolar concentrations
same,RNA nuclear foci,r(CUG)exp [6],far fewer foci are observed
[N-]=[N+]=NCC1OC(OC2C(N)CC(N)C(OC3OC(CN)C(O)C(O)C3O)C2O)C(O)C(N)C1O (centres unmarked) [N3-K],average number of foci per cell,r(CCUG)300,6±2 foci per cell
